ChEMBL document CHEMBL1201862, “PubChem BioAssay data set” (2004)
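Tested at 5 concentrations; 48 h exposure; 96-well plates; endpoints linearly interpolated, else capped at highest concentration. The concentration for 50% growth inhibition is given as GI50.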 Activity calls are given as the source filed them. Cut-off read from the data, not from the text of the source: active = GI50 up to about 1.1 µM and inactive = higher.

Key:
Assay in all cases: DTP human tumour cell line panel, 48 h
[1] = test system: 786-0
[2] = test system: A498
[3] = test system: A549
[4] = test system: ACHN
[5] = test system: BT-549
[6] = test system: CAKI-1
[7] = test system: CCRF-CEM
[8] = test system: COLO 205
[9] = test system: DU-145
[10] = test system: EKVX
[11] = test system: HCC 2998
[12] = test system: HCT-116
[13] = test system: HCT-15
[14] = test system: HL-60
[15] = test system: HOP-62
[16] = test system: HOP-92
[17] = test system: HT-29
[18] = test system: Hs-578T
[19] = test system: IGROV-1
[20] = test system: K562
[21] = test system: KM12
[22] = test system: LOX IMVI
[23] = test system: M14
[24] = test system: MCF7
[25] = test system: MDA-MB-231
[26] = test system: MDA-MB-435
[27] = test system: MDA-N
[28] = test system: MOLT-4
[29] = test system: Malme-3M
[30] = test system: NCI-H226
[31] = test system: NCI-H23
[32] = test system: NCI-H460
[33] = test system: NCI-H522
[34] = test system: NCI/ADR-RES
[35] = test system: OVCAR-3
[36] = test system: OVCAR-4
[37] = test system: OVCAR-5
[38] = test system: OVCAR-8
[39] = test system: PC-3
[40] = test system: RPMI-8226
[41] = test system: RXF 393
[42] = test system: SF-268
[43] = test system: SF-295
[44] = test system: SF-539
[45] = test system: SK-MEL-28
[46] = test system: SK-MEL-2
[47] = test system: SK-MEL-5
[48] = test system: SK-OV-3
[49] = test system: SN12C
[50] = test system: SNB-19
[51] = test system: SNB-75
[52] = test system: SR
[53] = test system: SW-620
[54] = test system: T47D
[55] = test system: TK-10
[56] = test system: U-251
[57] = test system: UACC-257
[58] = test system: UACC-62
[59] = test system: UO-31
[60] = test system: DLD-1
[61] = test system: DMS-114
[62] = test system: DMS-273
[63] = test system: KM-20L2
[64] = test system: LXFL 529
[65] = test system: M19-MEL
[66] = test system: SNB-78

In the case of `O=C1Nc2ccccc2/C1=N/NS(=O)(=O)c1ccc(C(=O)O)cc1`, the GI50 [1] is reported as > 100 µM (inactive), the GI50 [2] is reported as > 100 µM (inactive) and the GI50 [3] is reported as > 100 µM (inactive). The GI50 [4] was > 100 µM (inactive), the GI50 [5] was > 100 µM (inactive) and the GI50 [6] was > 100 µM (inactive). For the same compound, the GI50 [7] was > 100 µM (inactive), the GI50 [8] was > 100 µM (inactive) and the GI50 [9] was > 100 µM (inactive). For the same compound, the GI50 [10] was 74.5 µM (inactive), the GI50 [11] was > 100 µM (inactive) and the GI50 [12] was > 100 µM (inactive). The GI50 [13] was greater than 100 µM, the GI50 [14] was > 100 µM (inactive) and the GI50 [15] was > 100 µM (inactive). The GI50 [16] was > 100 µM (inactive), the GI50 [17] was > 100 µM (inactive) and the GI50 [18] was > 100 µM (inactive). For the same compound, the GI50 [19] was > 100 µM (inactive), the GI50 [20] was > 100 µM (inactive) and the GI50 [21] was > 100 µM (inactive). For the same compound, the GI50 [22] was > 100 µM (inactive), the GI50 [23] was > 100 µM (inactive) and the GI50 [24] was > 100 µM (inactive). The GI50 [25] was > 100 µM (inactive), the GI50 [26] was > 100 µM (inactive) and the GI50 [27] was > 100 µM (inactive). For the same compound, the GI50 [28] was > 100 µM (inactive), the GI50 [29] was > 100 µM (inactive) and the GI50 [30] was > 100 µM (inactive). For the same compound, the GI50 [31] was > 100 µM (inactive), the GI50 [32] was > 100 µM (inactive) and the GI50 [33] was > 100 µM (inactive). For the same compound, the GI50 [34] was > 100 µM (inactive), the GI50 [35] was > 100 µM (inactive) and the GI50 [36] was > 100 µM (inactive). The GI50 [37] was > 100 µM (inactive), the GI50 [38] was > 100 µM (inactive) and the GI50 [39] was > 100 µM (inactive). The GI50 [40] was > 100 µM (inactive), the GI50 [41] was > 100 µM (inactive) and the GI50 [42] was > 100 µM (inactive). For the same compound, the GI50 [43] was > 100 µM (inactive), the GI50 [44] was > 100 µM (inactive) and the GI50 [45] was > 100 µM (inactive). The GI50 [46] was > 100 µM (inactive), the GI50 [47] was > 100 µM (inactive) and the GI50 [48] was > 100 µM (inactive). For the same compound, the GI50 [49] was > 100 µM (inactive), the GI50 [50] was > 100 µM (inactive) and the GI50 [51] was > 100 µM (inactive). The GI50 [52] was > 100 µM (inactive), the GI50 [53] was > 100 µM (inactive) and the GI50 [54] was > 100 µM (inactive). For the same compound, the GI50 [55] was > 100 µM (inactive), the GI50 [56] was > 100 µM (inactive) and the GI50 [57] was > 100 µM (inactive). For the same compound, the GI50 [58] was > 100 µM (inactive) and the GI50 [59] was > 100 µM (inactive).
For `COc1c2c(cc3c(CCc4ccccc4)cc(=O)oc13)CCC(C)(C)O2`, the GI50 [4] was > 100 µM (inactive), the GI50 [7] was > 100 µM (inactive) and the GI50 [8] was > 100 µM (inactive). For the same compound, the GI50 [60] was > 100 µM (inactive), the GI50 [61] was > 100 µM (inactive) and the GI50 [62] was > 100 µM (inactive). For the same compound, the GI50 [10] was > 100 µM (inactive), the GI50 [11] was > 100 µM (inactive) and the GI50 [12] was > 100 µM (inactive). The GI50 [13] was greater than 100 µM, the GI50 [14] was > 100 µM (inactive) and the GI50 [15] was > 100 µM (inactive). For the same compound, the GI50 [16] was 2.34 µM (inactive), the GI50 [17] was > 100 µM (inactive) and the GI50 [19] was > 100 µM (inactive). The GI50 [20] was > 100 µM (inactive), the GI50 [63] was > 100 µM (inactive) and the GI50 [21] was > 100 µM (inactive). The GI50 [22] was > 100 µM (inactive), the GI50 [64] was > 100 µM (inactive) and the GI50 [23] was > 100 µM (inactive). The GI50 [65] was > 100 µM (inactive), the GI50 [28] was > 100 µM (inactive) and the GI50 [29] was > 100 µM (inactive). The GI50 [30] was > 100 µM (inactive), the GI50 [31] was > 100 µM (inactive) and the GI50 [32] was > 100 µM (inactive). For the same compound, the GI50 [35] was > 100 µM (inactive), the GI50 [37] was > 100 µM (inactive) and the GI50 [38] was > 100 µM (inactive). The GI50 [40] was > 100 µM (inactive), the GI50 [41] was > 100 µM (inactive) and the GI50 [42] was > 100 µM (inactive). The GI50 [43] was > 100 µM (inactive), the GI50 [45] was > 100 µM (inactive) and the GI50 [46] was > 100 µM (inactive). The GI50 [47] was > 100 µM (inactive), the GI50 [48] was > 100 µM (inactive) and the GI50 [49] was > 100 µM (inactive). The GI50 [51] was > 100 µM (inactive), the GI50 [52] was > 100 µM (inactive) and the GI50 [53] was > 100 µM (inactive). The GI50 [55] was > 100 µM (inactive), the GI50 [56] was > 100 µM (inactive) and the GI50 [57] was > 100 µM (inactive). For the same compound, the GI50 [58] was > 100 µM (inactive) and the GI50 [59] was > 100 µM (inactive).
`COC(=O)C(Cc1ccccc1)/N=C/c1c(O)c(O)c(C(C)C)c2cc(C)c(-c3c(C)cc4c(C(C)C)c(O)c(O)c(/C=N/C(Cc5ccccc5)C(=O)OC)c4c3O)c(O)c12` (configuration not stated) was tested, and the GI50 [4] was 32.1 µM (inactive), the GI50 [7] was 7.82 µM (inactive) and the GI50 [8] was 30.3 µM (inactive). For the same compound, the GI50 [61] was > 10 µM (inactive), the GI50 [12] was > 10 µM (inactive) and the GI50 [14] was 18.9 µM (inactive). The GI50 [15] was 31.8 µM (inactive), the GI50 [16] was 23.8 µM (inactive) and the GI50 [17] was 17.6 µM (inactive). For the same compound, the GI50 [19] was 28.7 µM (inactive), the GI50 [20] was 18.7 µM (inactive) and the GI50 [63] was 20 µM (inactive). The GI50 [21] was 16.1 µM (inactive), the GI50 [64] was 18 µM (inactive) and the GI50 [23] was > 10 µM (inactive). The GI50 [65] was 36.8 µM (inactive), the GI50 [28] was 2.38 µM (inactive) and the GI50 [29] was 40.6 µM (inactive). The GI50 [31] was 26.4 µM (inactive), the GI50 [32] was 23 µM (inactive) and the GI50 [33] was 21.6 µM (inactive). For the same compound, the GI50 [35] was 17 µM (inactive), the GI50 [36] was 21.3 µM (inactive) and the GI50 [37] was 15.5 µM (inactive). The GI50 [40] was 22.4 µM (inactive), the GI50 [41] was 15 µM (inactive) and the GI50 [42] was 29.5 µM (inactive). For the same compound, the GI50 [43] was 15.8 µM (inactive), the GI50 [44] was 17 µM (inactive) and the GI50 [45] was 28.8 µM (inactive). For the same compound, the GI50 [46] was 20.9 µM (inactive), the GI50 [48] was 23.7 µM (inactive) and the GI50 [50] was 31.8 µM (inactive). For the same compound, the GI50 [51] was 67.9 µM (inactive), the GI50 [66] was 6.21 µM (inactive) and the GI50 [52] was 2.36 µM (inactive). For the same compound, the GI50 [56] was 17.3 µM (inactive), the GI50 [57] was 21.6 µM (inactive) and the GI50 [58] was 22.5 µM (inactive). For the same compound, the GI50 [59] was 22.3 µM (inactive).
With `CCN(CC)CCN1C(=O)CC2[C@@H]3CCc4cc(OC)ccc4C3CC[C@]2(C)C1=O` (some centres not stated) the GI50 [1] was 17.3 µM (inactive), the GI50 [2] was 36 µM (inactive) and the GI50 [4] was 96.4 µM (inactive). For the same compound, the GI50 [7] was 18.8 µM (inactive), the GI50 [8] was 19.5 µM (inactive) and the GI50 [12] was > 10 µM (inactive). The GI50 [14] was 16.8 µM (inactive), the GI50 [15] was 25.2 µM (inactive) and the GI50 [16] was 24 µM (inactive). The GI50 [17] was 18.4 µM (inactive), the GI50 [19] was 75.2 µM (inactive) and the GI50 [20] was 15.2 µM (inactive). The GI50 [63] was 20.1 µM (inactive), the GI50 [21] was 33.5 µM (inactive) and the GI50 [64] was 16.4 µM (inactive). The GI50 [23] was 17.7 µM (inactive), the GI50 [65] was 18.7 µM (inactive) and the GI50 [28] was > 10 µM (inactive). The GI50 [29] was 18.5 µM (inactive), the GI50 [31] was 91.2 µM (inactive) and the GI50 [32] was 37.6 µM (inactive). The GI50 [33] was 22.3 µM (inactive), the GI50 [35] was 56.8 µM (inactive) and the GI50 [36] was > 100 µM (inactive). For the same compound, the GI50 [37] was 32.5 µM (inactive), the GI50 [40] was 21.7 µM (inactive) and the GI50 [41] was 30.5 µM (inactive). For the same compound, the GI50 [42] was 38.5 µM (inactive), the GI50 [43] was 18.4 µM (inactive) and the GI50 [44] was 0.0134 µM (active). For the same compound, the GI50 [45] was 17.9 µM (inactive), the GI50 [46] was 20.9 µM (inactive) and the GI50 [48] was > 100 µM (inactive). The GI50 [50] was > 100 µM (inactive), the GI50 [51] was 33 µM (inactive) and the GI50 [66] was 28.5 µM (inactive). For the same compound, the GI50 [52] was > 10 µM (inactive), the GI50 [56] was 31.6 µM (inactive) and the GI50 [57] was 14.9 µM (inactive). The GI50 [58] was 19.3 µM (inactive) and the GI50 [59] was 17.4 µM (inactive).
